Source: PubChem BioAssay AID1963854 (Molecular Pharmacology Branch, DTP, NCI, 2024)

Test system: 186277-243-T-J2-PDC complex spheroid viability
Experiment: Anticancer human tumor 186277-243-T-J2-PDC patient-derived colon adenocarcinoma cell line growth inhibition [POLQ]
Settings: for IC50: curve of first compound; for viability, T/C: stronger effect = lower value
Description: Multicellular complex tumor spheroid response to Polymerase (POL) inhibitors (novobiocin, ART-558, RP6685) in combination with a variety of drugs and investigational agents in selected tumor cell lines
The POL inhibitors (novobiocin, ART-558, and RP6685) were evaluated both individually and in combination with standard of care and investigational anticancer small molecules within a complex spheroid model of solid tumors. . Complex spheroids include a stromal component modeled by human endothelial cells (HUVEC) and fibroblasts modeled by human mesenchymal stem cells (MSCs). The concentration ranges selected for each drug and investigational agent were based upon clinically achievable concentrations if the clinical Cmax of the agent was known.
Compounds. The drugs and investigational agents: novobiocin (NSC847541), ART-558 (NSC835418), RP-6685 (NSC848927), peposertib (NSC802822), ceralasertib (NSC780249), elimusertib (NSC800525), camonsertib (NSC841442), AZD-1390 (NSC803789), olaparib (NSC753686), talazoparib (NSC767125), rucaparib (NSC756644), sotorasib (NSC818433), MRTX-1133 (NSC836407), SN-38 (NSC673596), topotecan (NSC609699), epotoside (NSC141540), doxorubicin (NSC123127), gemcitabine (NSC613327), 5-fluorouracil (NSC19893), paclitaxel (NSC125973), vemurafenib (NSC761431), MSA-2 (NSC828583), SN-011 (NSC837082), adavosertib (NSC754352), prexasertib (NSC758257), carboplatin (NSC241240) and oxaliplatin (NSC266046), were obtained from the National Cancer Institute (NCI) Developmental Therapeutics Program Chemical Repository (21). The FDA-approved anticancer drug set is available from the Developmental Therapeutics Program at https://dtp.cancer.gov/organization/dscb/obtaining/. […] The stock solutions were prepared in dimethyl sulfoxide (DMSO, Sigma-Aldrich, St. Louis, MO, cat. D2650), except for the platinum compounds which were prepared in saline (Quality Biological, Gaithersburg, MD, cat. 114-055-101), at 800-fold the tested concentration and stored at -70 degrees C prior to their use. All drugs and investigational agents were tested over a range starting from a high concentration at or near the clinical Cmax and decreasing in half-log increments. If the clinical Cmax for an agent had not been determined, the highest concentration tested was 10 microM, except for SN-38, which was tested at a high concentration of 1 microM.
Cell Culture. All cells were maintained in an incubator at 37 degrees C and 5% CO2 with 95% humidity. The PDC lines were cultured according to standard operating procedures established by the NCI PDMR (https://pdmr.cancer.gov). Table 3 of the manuscript, lists the cell lines along with the number of the three cell types plated to form the mct-spheroids and media for tumor cell growth. After thawing, all PDC lines, except 997537-175-T-J1-PDC and 415267-285-R-J2-PDC, were cultured in Matrigel-coated flasks prepared with a working solution of 1X Ham's F-12 nutrient mix, without supplementation (Thermo Fisher Scientific, cat. 11765054), 100 U/mL penicillin-streptomycin (Thermo Fisher Scientific, cat. 15140122), and 2.5% Matrigel (Corning Inc., Corning, NY, cat. 354248) for the first three passages. The two PDC lines 997537-175-T-J1-PDC and 415267-285-R-J2-PDC were cultured on uncoated flasks. The 857933-349-R-J2-PDC line was cultured in 6C/Colon 1B media containing advanced DMEM/F-12 (Thermo Fisher Scientific, cat. 12634028), 10 mM HEPES (Thermo Fisher Scientific, cat. 15630080), 1X GlutaMAX supplement (Thermo Fisher Scientific, cat. 35050061), 0.1 mg/mL primocin (InvivoGen, San Diego, CA, cat. ant-pm-2), 10% defined fetal bovine serum, heat inactivated (HyClone Laboratories Inc., Logan, UT, cat. SH30070.03HI), 50% L-WRN conditioned media (ATCC, cat. CRL-3276), 1.25 mM N-Acetyl-L-cysteine (Sigma-Aldrich, cat. A9165), 10 mM nicotinamide (Sigma-Aldrich, cat. N0636), 1X B-27 supplement (Thermo Fisher Scientific, cat. 17504044), 1X N-2 supplement (Thermo Fisher Scientific, cat. […]

[1] = second compound 0.0316 µM, first compound 0.00316 µM
[2] = second compound 0.0316 µM, first compound 0.01 µM
[3] = second compound 0.0316 µM, first compound 0.0316 µM
[4] = second compound 0.0316 µM, first compound 0.1 µM
[5] = second compound 0.1 µM, first compound 0.00316 µM
[6] = second compound 0.1 µM, first compound 0.01 µM
[7] = second compound 0.1 µM, first compound 0.0316 µM
[8] = second compound 0.1 µM, first compound 0.1 µM
[9] = second compound 0.316 µM, first compound 0.00316 µM
[10] = second compound 0.316 µM, first compound 0.01 µM
[11] = second compound 0.316 µM, first compound 0.0316 µM
[12] = second compound 0.316 µM, first compound 0.1 µM
[13] = second compound 1 µM, first compound 0.00316 µM
[14] = second compound 1 µM, first compound 0.01 µM
[15] = second compound 1 µM, first compound 0.0316 µM
[16] = second compound 1 µM, first compound 0.1 µM
[17] = second compound 3.16 µM, first compound 0.00316 µM
[18] = second compound 3.16 µM, first compound 0.01 µM
[19] = second compound 3.16 µM, first compound 0.0316 µM
[20] = second compound 3.16 µM, first compound 0.1 µM
[21] = second compound 10 µM, first compound 0.00316 µM
[22] = second compound 10 µM, first compound 0.01 µM
[23] = second compound 10 µM, first compound 0.0316 µM
[24] = second compound 10 µM, first compound 0.1 µM
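Further: spheroids exposed to compounds for seven days.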
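Wherever viability, T/C is given: 100% = DMSO vehicle control viability.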

COc1cccc(OCCCN)c1-c1cc(Nc2cnc(C#N)cn2)n[nH]1 + COC1C(OC(N)=O)C(O)C(Oc2ccc3c(O)c(NC(=O)c4ccc(O)c(CC=C(C)C)c4)c(=O)oc3c2C)OC1(C)C
IC50 (second compound 0.0316 µM): < 3.16 nM | IC50 (second compound 0.1 µM): < 3.16 nM | IC50 (second compound 0.316 µM): < 3.16 nM | IC50 (second compound 1 µM): < 3.16 nM | IC50 (second compound 3.16 µM): < 3.16 nM | IC50 (second compound 10 µM): < 3.16 nM | viability, T/C [1]: 8.14% | viability, T/C [2]: 5.13% | viability, T/C [3]: 4.48% | viability, T/C [4]: 4.86% | viability, T/C (second compound 0.0316 µM, first compound 0.316 µM): 4.49% | viability, T/C (second compound 0.0316 µM, first compound 1 µM): 5.84% | viability, T/C [5]: 9.53% | viability, T/C [6]: 5.58% | viability, T/C [7]: 4.93% | viability, T/C [8]: 4.32% | viability, T/C (second compound 0.1 µM, first compound 0.316 µM): 4.26% | viability, T/C (second compound 0.1 µM, first compound 1 µM): 5.58% | viability, T/C [9]: 9.04% | viability, T/C [10]: 5.2% | viability, T/C [11]: 5.3% | viability, T/C [12]: 4.89% | viability, T/C (second compound 0.316 µM, first compound 0.316 µM): 4.61% | viability, T/C (second compound 0.316 µM, first compound 1 µM): 5.48% | viability, T/C [13]: 8.31% | viability, T/C [14]: 6.44% | viability, T/C [15]: 4.79% | viability, T/C [16]: 4.46% | viability, T/C (second compound 1 µM, first compound 0.316 µM): 4.72% | viability, T/C (second compound 1 µM, first compound 1 µM): 5.47% | viability, T/C [17]: 7.66% | viability, T/C [18]: 5.09% | viability, T/C [19]: 4.84% | viability, T/C [20]: 4.62% | viability, T/C (second compound 3.16 µM, first compound 0.316 µM): 4.32% | viability, T/C (second compound 3.16 µM, first compound 1 µM): 5.85% | viability, T/C [21]: 6.16% | viability, T/C [22]: 5.21% | viability, T/C [23]: 4.7% | viability, T/C [24]: 4.65% | viability, T/C (second compound 10 µM, first compound 0.316 µM): 5.39% | viability, T/C (second compound 10 µM, first compound 1 µM): 6.57%

Cn1ncnc1[C@H]1c2n[nH]c(=O)c3cc(F)cc(c23)N[C@@H]1c1ccc(F)cc1 + COC1C(OC(N)=O)C(O)C(Oc2ccc3c(O)c(NC(=O)c4ccc(O)c(CC=C(C)C)c4)c(=O)oc3c2C)OC1(C)C
IC50 (second compound 0.0316 µM): > 100 nM | IC50 (second compound 0.1 µM): > 100 nM | IC50 (second compound 0.316 µM): > 100 nM | IC50 (second compound 1 µM): > 100 nM | IC50 (second compound 3.16 µM): > 100 nM | IC50 (second compound 10 µM): > 100 nM | viability, T/C (second compound 0.0316 µM, first compound 0.000316 µM): 96.7% | viability, T/C (second compound 0.0316 µM, first compound 0.001 µM): 93% | viability, T/C [1]: 114% | viability, T/C [2]: 112% | viability, T/C [3]: 119% | viability, T/C [4]: 105% | viability, T/C (second compound 0.1 µM, first compound 0.000316 µM): 103% | viability, T/C (second compound 0.1 µM, first compound 0.001 µM): 110% | viability, T/C [5]: 103% | viability, T/C [6]: 106% | viability, T/C [7]: 116% | viability, T/C [8]: 108% | viability, T/C (second compound 0.316 µM, first compound 0.000316 µM): 101% | viability, T/C (second compound 0.316 µM, first compound 0.001 µM): 111% | viability, T/C [9]: 111% | viability, T/C [10]: 105% | viability, T/C [11]: 114% | viability, T/C [12]: 108% | viability, T/C (second compound 1 µM, first compound 0.000316 µM): 84.4% | viability, T/C (second compound 1 µM, first compound 0.001 µM): 110% | viability, T/C [13]: 108% | viability, T/C [14]: 98.3% | viability, T/C [15]: 118% | viability, T/C [16]: 102% | viability, T/C (second compound 3.16 µM, first compound 0.000316 µM): 92.4% | viability, T/C (second compound 3.16 µM, first compound 0.001 µM): 106% | viability, T/C [17]: 107% | viability, T/C [18]: 117% | viability, T/C [19]: 128% | viability, T/C [20]: 100% | viability, T/C (second compound 10 µM, first compound 0.000316 µM): 96.2% | viability, T/C (second compound 10 µM, first compound 0.001 µM): 106% | viability, T/C [21]: 110% | viability, T/C [22]: 101% | viability, T/C [23]: 109% | viability, T/C [24]: 104%
